According to patent US9983218B2, “Indole and indoline derivatives and methods of use thereof” (AbbVie Inc., priority 2008, dated 2018):
Where two headings read alike, the source gives them in different places.

Test system: SK-N-SH human neuroblastoma cells
Assay: Serum deprivation/JC-1 mitochondrial membrane potential (MMP) assay
Assay type: cell-based
Settings: for Emax: SK-N-SH, read-out: JC-1 max %; for EC50: SK-N-SH cells, serum deprivation ~18 hours, JC-1 ratio normalized to peak value for 10 μM dimebolin, single curve fit to mean data of n=2-3, read-out: EC50
In short: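 Cells were serum-deprived ~18 h in MEM with or without compound (DMSO ≤1%), then stained with JC-1 for 35 min at 37° C. The red/green fluorescence ratio (560/595 vs 485/535 nm) was normalized to the peak response of 10 μM dimebolin. EC50 came from one curve fit to mean data (n=2-3, duplicates).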

[1] = Homo sapiens, percent maximal intensity in JC-1 ratio normalized to 10 μM dimebolin

Compound	Emax [1] [%]	EC50 (Homo sapiens) [µM]	EC50 [µM]	JC-1 max % (percent maximal intensity in JC-1 ratio normalized to 10 μM dimebolin) [%]
COCCN(C)c1ccc(Cn2c3c(c4cc(F)ccc42)CN2CCC3CC2)cn1 [Example 245, 5-[(9-fluoro-1,3,4,5-tetrahydro-6H-2,5-ethanoazepino[4,3-b]indol-6-yl)methyl]-N-(2-methoxyethyl)-N-methylpyridin-2-amine]	189	10		
Fc1cncc(Cn2c3c(c4cc(F)ccc42)CN2CCC3CC2)c1 [Example 246, 9-fluoro-6-[(5-fluoropyridin-3-yl)methyl]-3,4,5,6-tetrahydro-1H-2,5-ethanoazepino[4,3-b]indole]	148	8.76		
Fc1ccc2c(c1)c1c(n2Cc2ccc(-n3cccn3)nc2)C2CCN(CC2)C1 [Example 247, 9-fluoro-6-{[6-(1H-pyrazol-1-yl)pyridin-3-yl]methyl}-3,4,5,6-tetrahydro-1H-2,5-ethanoazepino[4,3-b]indole]	192	4.65		
Fc1ccc2c(c1)c1c(n2Cc2cnc(-c3ccccc3)nc2)C2CCN(CC2)C1 [Example 249, 9-fluoro-6-[(2-phenylpyrimidin-5-yl)methyl]-3,4,5,6-tetrahydro-1H-2,5-ethanoazepino[4,3-b]indole]	133	5.27		
Fc1ccc2c(c1)c1c(n2Cc2nc3ccccc3[nH]2)C2CCN(CC2)C1 [Example 250, 6-(1H-benzimidazol-2-ylmethyl)-9-fluoro-3,4,5,6-tetrahydro-1H-2,5-ethanoazepino[4,3-b]indole]	77.3	8.37		
Fc1ccc2c(c1)c1c(n2Cc2cccc3cccnc23)C2CCN(CC2)C1 [Example 251, 9-fluoro-6-(quinolin-8-ylmethyl)-3,4,5,6-tetrahydro-1H-2,5-ethanoazepino[4,3-b]indole]	193	4.39		
Cc1cc(Cn2c3c(c4cc(F)ccc42)CN2CCC3CC2)on1 [Example 252, 9-fluoro-6-[(3-methyl-1,2-oxazol-5-yl)methyl]-3,4,5,6-tetrahydro-1H-2,5-ethanoazepino[4,3-b]indole]	109	6.2		
Fc1ccc2c(c1)c1c(n2Cc2cn3nc(Cl)ccc3n2)C2CCN(CC2)C1 [Example 253, 6-[(6-chloroimidazo[1,2-b]pyridazin-2-yl)methyl]-9-fluoro-3,4,5,6-tetrahydro-1H-2,5-ethanoazepino[4,3-b]indole]	185	4.4		
Fc1ccc2c(c1)c1c(n2Cc2cn3cccnc3n2)C2CCN(CC2)C1 [Example 254, 9-fluoro-6-(imidazo[1,2-a]pyrimidin-2-ylmethyl)-3,4,5,6-tetrahydro-1H-2,5-ethanoazepino[4,3-b]indole]	57.1	8.09		
O=c1cccnn1-c1ccc(Cn2c3c(c4cc(F)ccc42)CN2CCC3CC2)cc1 [Example 255, 2-{4-[(9-fluoro-1,3,4,5-tetrahydro-6H-2,5-ethanoazepino[4,3-b]indol-6-yl)methyl]phenyl}pyridazin-3(2H)-one]	171	5.72		
FC(F)(F)c1ccc(Cn2c3c(c4ccccc42)CN2CCC3CC2)cn1 [Example 256, 6-{[6-(trifluoromethyl)pyridin-3-yl]methyl}-3,4,5,6-tetrahydro-1H-2,5-ethanoazepino[4,3-b]indole]	89.6	15.5		
Clc1ccc2nc(Cn3c4c(c5ccccc53)CN3CCC4CC3)cn2n1 [Example 257, 6-[(6-chloroimidazo[1,2-b]pyridazin-2-yl)methyl]-3,4,5,6-tetrahydro-1H-2,5-ethanoazepino[4,3-b]indole]	155	3.6		
O=c1ccccn1-c1cccc(-n2c3c(c4cc(F)ccc42)CN2CCC3CC2)n1 [Example 258, 6′-(9-fluoro-1,3,4,5-tetrahydro-6H-2,5-ethanoazepino[4,3-b]indol-6-yl)-2H-1,2′-bipyridin-2-one]	149	2.99		
Oc1ncnc2ccc(-n3c4c(c5cc(F)ccc53)CN3CCC4CC3)cc12 [Example 259, 6-(9-fluoro-1,3,4,5-tetrahydro-6H-2,5-ethanoazepino[4,3-b]indol-6-yl)quinazolin-4-ol]	126	3.2		
O=c1cnc2ccc(-n3c4c(c5cc(F)ccc53)CN3CCC4CC3)cc2[nH]1 [Example 260, 7-(9-fluoro-1,3,4,5-tetrahydro-6H-2,5-ethanoazepino[4,3-b]indol-6-yl)quinoxalin-2(1H)-one]	191	2.91		
Cc1ncc(-n2c3c(c4cc(F)ccc42)CN2CCC3CC2)cn1 [Example 263, 9-fluoro-6-(2-methylpyrimidin-5-yl)-3,4,5,6-tetrahydro-1H-2,5-ethanoazepino[4,3-b]indole]	108	11		

Compound	Emax [1] [%]	EC50 (Homo sapiens) [µM]	EC50 [µM]	JC-1 max % (percent maximal intensity in JC-1 ratio normalized to 10 μM dimebolin) [%]
c1cc(N2CCOCC2)nc(-n2c3c(c4ccccc42)CN2CCC3CC2)c1 [Example 265, 6-[6-(morpholin-4-yl)pyridin-2-yl]-3,4,5,6-tetrahydro-1H-2,5-ethanoazepino[4,3-b]indole]	264	1.84		
NC(=O)c1ccc(-n2c3c(c4ccccc42)CN2CCC3CC2)nc1 [Example 266, 6-(1,3,4,5-tetrahydro-6H-2,5-ethanoazepino[4,3-b]indol-6-yl)nicotinamide]	127	10.7		
c1ccc2c(c1)c1c(n2-c2ccc3c(c2)CCNC3)C2CCN(CC2)C1 [Example 267, 6-(1,2,3,4-tetrahydroisoquinolin-6-yl)-3,4,5,6-tetrahydro-1H-2,5-ethanoazepino[4,3-b]indole]	70	9.72		
CN1CCc2cc(-n3c4c(c5ccccc53)CN3CCC4CC3)ccc2C1 [Example 268, 6-(2-methyl-1,2,3,4-tetrahydroisoquinolin-6-yl)-3,4,5,6-tetrahydro-1H-2,5-ethanoazepino[4,3-b]indole]	237	4.43		
c1ccc2c(c1)c1c(n2-c2ccc3ncncc3c2)C2CCN(CC2)C1 [Example 269, 6-(quinazolin-6-yl)-3,4,5,6-tetrahydro-1H-2,5-ethanoazepino[4,3-b]indole]	204	0.745		
c1ccc2c(c1)c1c(n2-c2ccc3ccncc3c2)C2CCN(CC2)C1 [Example 270, 6-(isoquinolin-7-yl)-3,4,5,6-tetrahydro-1H-2,5-ethanoazepino[4,3-b]indole]	270	2.81		
c1ccc2c(c1)c1c(n2-c2ccc3cnccc3c2)C2CCN(CC2)C1 [Example 271, 6-(isoquinolin-6-yl)-3,4,5,6-tetrahydro-1H-2,5-ethanoazepino[4,3-b]indole]	264	3.17		
c1ccc2c(c1)c1c(n2-c2cc(-n3ccnc3)ccn2)C2CCN(CC2)C1 [Example 272, 6-[4-(1H-imidazol-1-yl)pyridin-2-yl]-3,4,5,6-tetrahydro-1H-2,5-ethanoazepino[4,3-b]indole]	149	3.99		
O=c1ccccn1-c1cccc(-n2c3c(c4ccccc42)CN2CCC3CC2)n1 [Example 273, 6′-(1,3,4,5-tetrahydro-6H-2,5-ethanoazepino[4,3-b]indol-6-yl)-2H-1,2′-bipyridin-2-one]	190	7.48		
O=C1COc2cc(-n3c4c(c5ccccc53)CN3CCC4CC3)ccc2N1 [Example 275, 7-(1,3,4,5-tetrahydro-6H-2,5-ethanoazepino[4,3-b]indol-6-yl)-2H-1,4-benzoxazin-3(4H)-one]	130	3.44		
NC(=O)c1cc(-n2c3c(c4ccccc42)CN2CCC3CC2)ccc1N [Example 276, 2-amino-5-(3,4,5,6-tetrahydro-1H-2,5-ethanoazepino[4,3-b]indol-6(1H)-yl)benzamide]			6.65	80.55
CN1[C@H]2CC[C@@H]1c1c(n(-c3ccc4ncccc4c3)c3ccccc13)C2 [Example 281, (7S,10R)-11-methyl-5-(quinolin-6-yl)-5,6,7,8,9,10-hexahydro-7,10-epiminocyclohepta[b]indole]	228	1.74		
Fc1ccc2c(c1)c1c(n2Cc2ccc(Cl)nc2)CC2CNC1C2 (centres unmarked) [Example 285, 6-[(6-chloropyridin-3-yl)methyl]-9-fluoro-1,2,3,4,5,6-hexahydro-1,4-methanoazepino[4,3-b]indole]	149	9.41		
CN1[C@@H]2CC[C@H]1c1c(n(-c3ccc4ncccc4c3)c3ccccc13)C2 [Example 286, (7R,10S)-11-methyl-5-(quinolin-6-yl)-5,6,7,8,9,10-hexahydro-7,10-epiminocyclohepta[b]indole]	239	4.41		
O=c1cccnn1-c1ccc(-n2c3c(c4ccccc42)CN2CCC3CC2)cc1 [Example 287, 2-[4-(1,3,4,5-tetrahydro-6H-2,5-ethanoazepino[4,3-b]indol-6-yl)phenyl]pyridazin-3(2H)-one]	209	1.53		
